Data taken from patent publication US11022556B2, “Tetrazolium compound for detecting microorganisms, reagent for detecting microorganisms and method for detecting microorganisms” (JNC CORPORATION, priority 2010, dated 2021).

How the values were obtained:
[1] = absorption wavelength and colour of the formazan dye formed from the tetrazolium compound; type: physicochemical; settings: formazan dye produced by reduction of the tetrazolium compound
general viable cells = experiment: comparative test for detecting microorganisms on sheet media for detecting general viable cells; type: cell-based; settings: food samples (meat, precut vegetables, delicatessens); sheet medium with 0.03 g/m^3 reagent; 35° C.; 24 hours incubation vs 48 hours for 2,3,5-triphenyltetrazolium chloride
Protocol: Next, the results obtained by a comparative test for detecting microorganisms using the chromogenic reagent of Example 1 and the chromogenic reagent of Comparative Example are described below. The comparative test was performed as follows. First, sheet media for detecting general viable cells containing as the chromogenic reagent 0.03 g/m^3 each of tetrazolium compound A of Example 1 and 2,3,5-triphenyltetrazolium chloride of Comparative Example, respectively, were prepared. The sheet media for general viable cells were the same except that the chromogenic reagents were different.
Then, 10 g of either one of meat, precut vegetables, delicatessens, etc. was put into a sterilized bag and 100 ml of sterile saline was added thereto. The mixture was homogenized with a stomacher. […]
The sheet medium of Example 1 for detecting general viable cells containing the chromogenic reagent was incubated for 24 hours and the sheet medium for detecting general viable cells containing the chromogenic reagent for comparison was incubated for 48 hours, respectively, both at 35° C. The viable cell counts were compared between the count of viable cells visually detected by the chromogenic reagent of Example 1 and the count of viable cells detected by the chromogenic reagent of Comparative Example. […]

Structure (SMILES)	colour developed by the formazan dye [1]	peak of absorption wavelength of the formazan dye formed [1]	number of colonies (viable cell count) visually detected, compared with the chromogenic reagent of Comparative Example (general viable cells)
COc1ccccc1-n1nc(-c2ccccc2)n[n+]1-c1ccc([N+](=O)[O-])cc1.[Cl-] [tetrazolium compound A, 2-(2-Methoxyphenyl)-3-(4-nitrophenyl)-5-phenyltetrazolium chloride]	blue to bluish purple	approximately 410 nm	almost the same number or more of colonies were detected
COc1cc([N+](=O)[O-])ccc1-n1nc(-c2ccccc2)n[n+]1-c1ccc([N+](=O)[O-])cc1.[Cl-] [tetrazolium compound B, 2-(2-Methoxy-4-nitrophenyl)-3-(4-nitrophenyl)-5-phenyltetrazolium chloride]	blue to bluish purple	approximately 410 nm	the colonies were detected in the same number as in or more than
